Data: patent US20040138199A1, “Benzoxazines and derivatives thereof as therapeutic agents” (priority 2002, published 2004)

Molecular target: T1, p101/p110γ protein (PI3Kγ) (Homo sapiens, UniProt P48736)
T1 construct: HA; made in house; host or cells: Spodoptera frugiperda (Sf9) cells, baculovirus coinfection
Test: PI3Kγ In Vitro Kinase Assay
Assay type: biochemical
Settings: purified recombinant p101/p110γ with G protein β1/γ2 subunits; 20 μM ATP, 25 μM PIP2; 20 minutes at room temperature; radioactive PIP3 readout
Procedure, shortened: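 Baculovirus/Sf9-expressed p101/p110γ (~2.7 nM) with G protein β1/γ2, 20 μM ATP plus [γ-32P]ATP, PIP2/PE micelles (25 μM PIP2, 300 μM PE, 10 mM MgCl2) in HEPES buffer. Reaction 20 min at room temperature, stopped with H3PO4; radiolabelled PIP3 counted on filters to derive IC50 (μM).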

T1 sequence (P48736 whole entry, species assumed): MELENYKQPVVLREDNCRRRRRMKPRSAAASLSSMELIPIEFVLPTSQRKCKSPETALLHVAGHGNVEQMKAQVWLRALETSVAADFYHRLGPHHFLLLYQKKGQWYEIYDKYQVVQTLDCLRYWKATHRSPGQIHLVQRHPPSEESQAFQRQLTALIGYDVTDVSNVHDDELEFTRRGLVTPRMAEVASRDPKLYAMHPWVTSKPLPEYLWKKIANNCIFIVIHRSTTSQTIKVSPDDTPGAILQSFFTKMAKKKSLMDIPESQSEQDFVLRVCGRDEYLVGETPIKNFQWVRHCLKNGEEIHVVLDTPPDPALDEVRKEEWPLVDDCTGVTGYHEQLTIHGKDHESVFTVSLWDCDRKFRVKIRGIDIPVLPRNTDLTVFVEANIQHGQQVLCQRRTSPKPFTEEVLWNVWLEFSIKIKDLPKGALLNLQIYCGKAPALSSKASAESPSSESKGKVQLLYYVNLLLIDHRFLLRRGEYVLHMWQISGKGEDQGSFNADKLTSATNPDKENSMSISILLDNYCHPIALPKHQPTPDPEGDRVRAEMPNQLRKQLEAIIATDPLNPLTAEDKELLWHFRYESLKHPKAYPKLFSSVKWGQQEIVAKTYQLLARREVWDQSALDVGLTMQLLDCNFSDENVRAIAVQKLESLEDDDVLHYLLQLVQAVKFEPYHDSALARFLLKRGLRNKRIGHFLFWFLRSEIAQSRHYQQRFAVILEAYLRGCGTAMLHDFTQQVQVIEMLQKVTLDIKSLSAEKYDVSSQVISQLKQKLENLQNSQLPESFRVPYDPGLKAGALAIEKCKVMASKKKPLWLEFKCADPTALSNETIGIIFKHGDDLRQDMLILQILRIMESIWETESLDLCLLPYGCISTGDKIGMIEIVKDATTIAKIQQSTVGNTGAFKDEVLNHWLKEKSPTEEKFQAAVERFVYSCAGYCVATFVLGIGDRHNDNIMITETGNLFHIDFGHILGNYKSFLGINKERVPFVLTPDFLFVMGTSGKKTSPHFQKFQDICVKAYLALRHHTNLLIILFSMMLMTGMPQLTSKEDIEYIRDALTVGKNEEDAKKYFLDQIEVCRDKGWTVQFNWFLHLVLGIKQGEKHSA
T1 sequence (Q8WYR1 whole entry partner, species assumed): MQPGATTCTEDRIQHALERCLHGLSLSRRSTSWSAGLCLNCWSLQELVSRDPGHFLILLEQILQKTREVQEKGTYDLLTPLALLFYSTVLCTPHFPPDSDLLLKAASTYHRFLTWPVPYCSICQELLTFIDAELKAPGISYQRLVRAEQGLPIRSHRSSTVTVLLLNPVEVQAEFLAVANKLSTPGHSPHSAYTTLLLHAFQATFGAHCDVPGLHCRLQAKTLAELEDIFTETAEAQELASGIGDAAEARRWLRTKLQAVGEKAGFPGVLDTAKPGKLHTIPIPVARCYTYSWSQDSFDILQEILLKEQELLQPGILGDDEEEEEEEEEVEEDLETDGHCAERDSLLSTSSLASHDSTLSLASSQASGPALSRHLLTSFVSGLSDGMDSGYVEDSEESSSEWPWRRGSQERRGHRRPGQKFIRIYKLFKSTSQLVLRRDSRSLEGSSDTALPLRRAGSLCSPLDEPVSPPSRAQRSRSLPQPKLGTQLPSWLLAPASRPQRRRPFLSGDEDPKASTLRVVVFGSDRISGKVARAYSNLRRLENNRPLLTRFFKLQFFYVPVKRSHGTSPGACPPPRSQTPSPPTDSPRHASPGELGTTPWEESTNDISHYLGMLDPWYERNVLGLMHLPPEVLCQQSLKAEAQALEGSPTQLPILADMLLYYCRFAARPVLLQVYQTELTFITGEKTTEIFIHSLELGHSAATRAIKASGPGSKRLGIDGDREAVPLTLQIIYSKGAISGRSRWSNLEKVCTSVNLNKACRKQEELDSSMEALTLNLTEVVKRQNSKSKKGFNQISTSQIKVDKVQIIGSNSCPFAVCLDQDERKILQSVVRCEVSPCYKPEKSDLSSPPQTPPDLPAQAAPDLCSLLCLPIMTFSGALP

Compound | IC50 [nM]
4-[2-(4-Oxo-2-thioxo-thiazolidin-5-ylidenemethyl)-7,8-dihydro-6H-5-oxa-9-aza-benzocycloheptene-9-carbonyl]-benzonitrile [Example 121] | 2610
CS(=O)(=O)c1ccc(C(=O)N2CCOc3ccc(C=C4SC(=S)NC4=O)cc32)cc1 [Example 72] | 174
O=C1NC(=S)SC1=Cc1ccc2c(c1)N(C(=O)CCCc1ccccc1)CCO2 [Example 82, 5-[4-(4-Phenyl-butryl)-3,4-dihydro-2H-benzo[1,4]oxazin-6-ethylene]-2-thioxo-thiazolidin-4-one] | 1
5-[9-(4-Hexyl-benzoyl)-6,7,8,9-tetrahydro-5-oxa-9-aza-benzocyclohepten-2-ylmethylene]-2-thioxo-thiazolidin-4-one [Example 126] | 4200
CCC(C(=O)N1CCOc2ccc(C=C3SC(=S)NC3=O)cc21)c1ccccc1 (stereo not drawn) [Example 30, 5-[4-(2-Phenyl-butyryl)-3,4-dihydro-2H-1,4-benzoxazin-6-ylmethylene]-2-thioxo-thiazolidin-4-one] | 735
O=C1NC(=S)SC1=Cc1ccc2c(c1)N(C(=O)c1ccno1)CCO2 [Example 49, 5-[4-(Isoxazole-5-carbonyl)-3,4-dihydro-2H-1,4-benzoxazin-6-ylmethylene]-2-thioxo-thiazolidin-4-one] | 245
O=C1NC(=S)SC1=Cc1ccc2c(c1)N(C(=O)Nc1ccccc1OC(F)(F)F)CCO2 [Example 56, 6-(4-Oxo-2-thioxo-thiazolidin-5-ylidenemethyl)-2,3-dihydro-1,4-benzoxazine-4-carboxylic acid (2-trifluoromethoxy-phenyl)-amide] | 225
O=C1NC(=S)SC1=Cc1ccc2c(c1)N(C(=O)c1cnc3ccccc3n1)CCO2 [Example 43, 5-[4-(Quinoxaline-2-carbonyl)-3,4-dihydro-2H-1,4-benzoxazin-6-ylmethylene]-2-thioxo-thiazolidin-4-one] | 565
O=C1NC(=S)SC1=Cc1ccc2c(c1)N(C(=O)C=Cc1ccccc1)CCO2 [Example 37, 5-[4-(3-Phenyl-acryloyl)-3,4-dihydro-2H-1,4-benzoxazin-6-ylmethylene]-2-thioxo-thiazolidin-4-one] | 7
5-[9-(3,4-Dichloro-benzoyl)-6,7,8,9-tetrahydro-5-oxa-9-aza-benzocyclohepten-2-ylmethylene]-2-thioxo-thiazolidin-4-one [Example 114] | 1380
O=C1NC(=S)SC1=Cc1ccc2c(c1)N(C(=O)c1cccnc1)CCO2 [Example 13] | 410
COc1cc(OC)cc(C(=O)N2CCOc3ccc(C=C4SC(=S)NC4=O)cc32)c1 [Example 14] | 1130
CC1CCCCC1CCC(=O)N1CCOc2ccc(C=C3SC(=S)NC3=O)cc21 (stereo not drawn) [Example 87] | 120
O=C1NC(=S)SC1=Cc1ccc2c(c1)N(C(=O)Nc1ccc(Cl)cc1C(F)(F)F)CCCO2 [Example 120, 2-(4-Oxo-2-thioxo-thiazolidin-5-ylidenemethyl)-7,8-dihydro-6H-5-oxa-9-aza-benzocycloheptene-9-carboxylic acid (4-chloro-2-trifluoromethyl-phenyl)-amide] | 1870
CC(=O)N1CCC(C(=O)N2CCOc3ccc(C=C4SC(=S)NC4=O)cc32)CC1 [Example 102, 5-[4-(1-Acetyl-piperidine-4-carbonyl)-3,4-dihydro-2H-1,4-benzoxazin-6-ylmethylene]-2-thioxo-thiazolidin-4-one] | 37
O=C1NC(=S)SC1=Cc1ccc2c(c1)N(C(=O)c1ccc3nonc3c1)CCO2 [Example 61, 5-[4-(Benzofurazan-5-carbonyl)-3,4-dihydro-2H-1,4-benzoxazin-6-ylmethylene]-2-thioxo-thiazolidin-4-one] | 560
COc1cccc(NC(=O)N2CCOc3ccc(C=C4SC(=S)NC4=O)cc32)c1 [Example 59, 6-(4-Oxo-2-thioxo-thiazolidin-5-ylidenemethyl)-2,3-dihydro-1,4-benzoxazine-4-carboxylic acid (3-methoxy-phenyl)-amide] | 125
CCCCCCCCC(=O)N1CCOc2ccc(C=C3SC(=S)NC3=O)cc21 [Example 98, 5-[4-(4-Nonanoyl)-3,4-dihydro-2H-1,4-benzoxazin-6-ylmethylene]-2-thioxo-thiazolidin-4-one] | 25
COc1ccc(CC(=O)N2CCOc3ccc(C=C4SC(=S)NC4=O)cc32)cc1OC [Example 20, 5-{4-[2-(3,4-Dimethoxy-phenyl)-acetyl]-3,4-dihydro-2H-1,4-benzoxazin-6-ylmethylene}-2-thioxo-thiazolidin-4-one] | 73
2-Thioxo-5-{9-[3-(3-trifluoromethyl-phenyl)-acryloyl]-6,7,8,9-tetrahydro-5-oxa-9-aza-benzocyclohepten-2-ylmethylene}-thiazolidin-4-one [Example 124] | 4010

Compound | IC50 [nM]
2-(4-Oxo-2-thioxo-thiazolidin-5-ylidenemethyl)-7,8-dihydro-6H-5-oxa-9-aza-benzocycloheptene-9-carboxylic acid p-tolylamide [Example 110] | 3500
CC(C)C(C)C(=O)N1CCOc2ccc(C=C3SC(=S)NC3=O)cc21 (stereo not drawn) [Example 86, 5-[4-(2,3-Dimethyl-butyryl)-3,4-dihydro-2H-benzo[1,4]oxazin-6-ethylene]-2-thioxo-thiazolidin-4-one] | 179
CC(C)(C)c1cc(C(=O)N2CCOc3ccc(C=C4SC(=S)NC4=O)cc32)cc(C(C)(C)C)c1 [Example 81, 5-[4-(3,5-Di-tert-butyl-benzoyl)-3,4-dihydro-2H-benzo[1,4]oxazin-6-ethylene]-2-thioxo-thiazolidin-4-one] | 3760
COc1cccc(C(=O)N2CCOc3ccc(C=C4SC(=S)NC4=O)cc32)c1 [Example 21, 5-[4-(3-Methoxy-benzoyl)-3,4-dihydro-2H-1,4-benzoxazin-6-ylmethylene]-2-thioxo-thiazolidin-4-one] | 100
O=C1NC(=S)SC1=Cc1ccc2c(c1)N(C(=O)Nc1ccc(Cl)c(Cl)c1)CCO2 [Example 78, 6-(4-Oxo-2-thioxo-thiazolidin-5-ylidenemethyl)-2,3-dihydro-benzo[1,4]oxazine-4-carboxylic acid (3,4-dichloro-phenyl)-amide] | 5
O=C1NC(=S)SC1=Cc1ccc2c(c1)N(C(=O)CCC1CCCC1)CCO2 [Example 36, 5-[4-(3-Cyclopentyl-propionyl)-3,4-dihydro-2H-1,4-benzoxazin-6-ylmethylene]-2-thioxo-thiazolidin-4-one] | 5
2-(4-Oxo-2-thioxo-thiazolidin-5-ylidenemethyl)-7,8-dihydro-6H-5-oxa-9-aza-benzocycloheptene-9-carboxylic acid phenyl ester [Example 105] | 424
COc1cc(C(=O)N2CCOc3ccc(C=C4SC(=S)NC4=O)cc32)cc(OC)c1OC [Example 22, 2-Thioxo-5-[4-(3,4,5-trimethoxy-benzoyl)-3,4-dihydro-2H-1,4-benzoxazin-6-ylmethylene]-thiazolidin-4-one] | 4000
O=C1NC(=S)SC1=Cc1ccc2c(c1)N(C(=O)Oc1cccc3ccccc13)CCCO2 [Example 106, 2-(4-Oxo-2-thioxo-thiazolidin-5-ylidenemethyl)-7,8-dihydro-6H-5-oxa-9-aza-benzocycloheptene-9-carboxylic acid naphthalen-1-yl ester] | 400
2-(4-Oxo-2-thioxo-thiazolidin-5-ylidenemethyl)-7,8-dihydro-6H-5-oxa-9-aza-benzocycloheptene-9-carboxylic acid p-tolyl ester [Example 107] | 704
5-[4-(7,7-Dimethyl-2-oxo-bicyclo[2.2.1]hept-1-ylmethanesulfonyl)-3,4-dihydro-2H-1,4-benzoxazin-6-ylmethylene]-2-thioxo-thiazolidin-4-one [Example 60] | 330
CC(=O)OC(C)C(=O)N1CCOc2ccc(C=C3SC(=S)NC3=O)cc21 (stereo not drawn) [Example 100, Acetic acid 1-methyl-2-oxo-2-[6-(4-oxo-2-thioxo-thiazolidin-5-ylidenemethyl)-2,3-dihydro-1,4-benzoxazin-4-yl]-ethyl ester] | 535
COc1cc(CC(=O)N2CCOc3ccc(C=C4SC(=S)NC4=O)cc32)cc(OC)c1 [Example 73] | 115
CC(C(=O)N1CCOc2ccc(C=C3SC(=S)NC3=O)cc21)C(C)(C)C (stereo not drawn) [Example 90, 2-Thioxo-5-[4-(2,3,3-trimethyl-butyryl)-3,4-dihydro-2H-benzo[1,4]oxazin-6-ethylene]-2-thioxo-thiazolidin-4-one] | 1030
O=C1NC(=S)SC1=Cc1ccc2c(c1)N(C(=O)c1ccco1)CCCO2 [Example 123, 5-[9-(Furan-2-carbonyl)-6,7,8,9-tetrahydro-5-oxa-9-aza-benzocyclohepten-2-ylmethylene]-2-thioxo-thiazolidin-4-one] | 3900
O=C1NC(=S)SC1=Cc1ccc2c(c1)N(CCc1ccccc1)CCCO2 [Example 16, 5-(9-Phenethyl-6,7,8,9-tetrahydro-5-oxa-9-aza-benzocyclohepten-2-ylmethylene)-2-thioxo-thiazolidin-4-one] | 80
O=C1NC(=S)SC1=Cc1ccc2c(c1)N(C(=O)COc1ccc(Cl)cc1)CCO2 [Example 47, 5-{4-[2-(4-Chloro-phenoxy)-acetyl]-3,4-dihydro-2H-1,4-benzoxazin-6-ylmethylene}-2-thioxo-thiazolidin-4-one] | 44
CN1CCN(Cc2ccc(C(=O)N3CCOc4ccc(C=C5SC(=S)NC5=O)cc43)cc2)CC1 [Example 74] | 115
O=C1NC(=S)SC1=Cc1ccc2c(c1)NCCO2 [Example 10, 5-(3,4-dihydro-2H-benzo[1,4]oxazine-6-ylmethylene)-2-thioxo-thiazolidin-4-one] | 160
